Measurements from patent publication US4933347A, “Diamidines and bis(imidazolines) for the treatment of and prophylaxis against pneumocystis carinii pneumonia” (University of North Carolina at Chapel Hill, priority 1988, dated 1990).

What was measured:
Pneumocystis carinii = experiment: Treatment of Pneumocystis carinii pneumonia in Sprague-Dawley rats (extent of disease by histologic score); assay type: in vivo, male Sprague-Dawley rats; conditions: for Extent of Disease by Histologic Score: number of animals with score 0.5 / Extent of Disease by Histologic Score: number of animals with score 1 / Extent of Disease by Histologic Score: number of animals with score 2 / Extent of Disease by Histologic Score: number of animals with score 3 / Extent of Disease by Histologic Score: number of animals with score 4: 14 days; for Extent of Disease by Histologic Score: number of animals with score 0.5 / Extent of disease by histologic score (combined): number of animals in scoring group 0.5: 0.5 = <10 cysts found per 2 sections; for Extent of Disease by Histologic Score: number of animals with score 1 / Extent of disease by histologic score (combined): number of animals in scoring group 1: 1 = scattered cysts, <5% of lung involved; for Extent of Disease by Histologic Score: number of animals with score 2 / Extent of disease by histologic score (combined): number of animals in scoring group 2: 2 = scattered cysts; for Extent of Disease by Histologic Score: number of animals with score 2: 5-10% lung involved or small foci of infection; for Extent of Disease by Histologic Score: number of animals with score 3 / Extent of disease by histologic score (combined): number of animals in scoring group 3: 3 = scattered cysts; for Extent of Disease by Histologic Score: number of animals with score 3: 10-50% of lung involved with some intense areas of infection; for Extent of Disease by Histologic Score: number of animals with score 4: 4 = >50% of lung involved with many intense areas of focal infection; for Extent of disease by histologic score (combined): number of animals in scoring group 0.5 / Extent of disease by histologic score (combined): number of animals in scoring group 1 / Extent of disease by histologic score (combined): number of animals in scoring group 2 / Extent of disease by histologic score (combined): number of animals in scoring group 3 / Extent of disease by histologic score (combined): number of animals in scoring group 4: Table XII composite; for Extent of disease by histologic score (combined): number of animals in scoring group 2: 5-10% of lung involved; for Extent of disease by histologic score (combined): number of animals in scoring group 3: 10-50% of lung involved; for Extent of disease by histologic score (combined): number of animals in scoring group 4: 4 = >50% of lung involved; for Efficacy in treating PCP compared with related compounds of the series: effect of chain length or substituent
Procedure: Induction and Treatment Of Pneumocystis Carinii in Sprague-Dawley Rats
Male Sprague-Dawley rats, barrier raised, non-certified virus free, weighing 150-200g were obtained from Hilltop Laboratories and housed individually. Animals were begun on a low (8%) protein diet (ICN Biomedicals, Cincinnati, OH) and drinking water containing tetracycline (0.5 mg/ml) and dexamethasone (1.0 μg/ml) immediately upon arrival. This treatment was given for the next 8 weeks, monitoring fluid intake daily and weighing animals weekly. Dilutions of the drinking solution were made when animals consumed too much fluid so as to prevent cortisone poisoning. At the beginning of the sixth week, animals were divided into groups of 8 animals each and the test compounds were administered daily by i.v. injection at a dose of 10 mg/kg, unless otherwise noted, for the next 14 days.
Animals were sacrificed at the end of the eighth week by chloroform inhalation and the left lung was removed aseptically and placed in sterile Hank's balanced salts solution without calcium or magnesium (HBSS-) for the ground tissue procedure. The right lung was inflated in situ with 10% […] and removed for histologic examination GMS staining. […]

[1] = Toxicity of amidines in rats (standard laboratory procedure); assay type: in vivo
Procedure: Compounds having the structure represented by Formula I were synthesized in accordance with the appropriate procedures discussed previously. The reaction schemes shown in Charts I-III specifically identify the methodology used to synthesize the compounds of the respective examples. The compounds which were synthesized are shown in Table IA and the elemental analysis and melting points of the compounds are shown in Table IB. Most of the compounds were tested for toxicity in rats using standard laboratory procedure and the results of that toxicity testing are shown in Table XII. The compounds of Examples 31, 32, and 34 were not synthesized but may be synthesized in the general manner discussed previously.

[2] = 10 mg/kg unless otherwise noted

## COc1cc(C(=N)N)ccc1OCCCOc1ccc(C(=N)N)cc1OC [Example 6]
Pneumocystis carinii; 5 mg/kg i.v. daily
  Extent of Disease by Histologic Score: number of animals with score 0.5: 7 animals
  Extent of Disease by Histologic Score: number of animals with score 1: 1 animals
  Extent of Disease by Histologic Score: number of animals with score 2: 0 animals
  Extent of Disease by Histologic Score: number of animals with score 3: 0 animals
  Extent of Disease by Histologic Score: number of animals with score 4: 0 animals
Pneumocystis carinii; tested at 5 mg/kg
  Extent of disease by histologic score (combined): number of animals in scoring group 0.5: 7 animals
  Extent of disease by histologic score (combined): number of animals in scoring group 1: 1 animals
  Extent of disease by histologic score (combined): number of animals in scoring group 2: 0 animals
  Extent of disease by histologic score (combined): number of animals in scoring group 3: 0 animals
  Extent of disease by histologic score (combined): number of animals in scoring group 4: 0 animals
Pneumocystis carinii; compound at 5 mg/kg
  Efficacy in treating PCP compared with control: significantly better, at one half the dose, than the control
[1]; rat, in vivo, 5 mg/kg
  Toxicity of amidines: Effect: None

## N=C(N)c1ccc(NCCCCNc2ccc(C(=N)N)cc2)cc1 [Example 8]
Pneumocystis carinii; 10 mg/kg i.v. daily
  Extent of Disease by Histologic Score: number of animals with score 0.5: 3 animals
  Extent of Disease by Histologic Score: number of animals with score 1: 1 animals
  Extent of Disease by Histologic Score: number of animals with score 2: 0 animals
  Extent of Disease by Histologic Score: number of animals with score 3: 0 animals
  Extent of Disease by Histologic Score: number of animals with score 4: 0 animals
Pneumocystis carinii; [2]
  Efficacy in treating PCP compared with pentamidine: better than or equal to pentamidine
Pneumocystis carinii; 10 mg/kg
  Extent of disease by histologic score (combined): number of animals in scoring group 0.5: 3 animals
  Extent of disease by histologic score (combined): number of animals in scoring group 1: 1 animals
  Extent of disease by histologic score (combined): number of animals in scoring group 2: 0 animals
  Extent of disease by histologic score (combined): number of animals in scoring group 3: 0 animals
  Extent of disease by histologic score (combined): number of animals in scoring group 4: 0 animals
[1]; rat, in vivo
  Deaths by day 7: 3 deaths

## COc1cc(C(=N)N)ccc1OCCCCOc1ccc(C(=N)N)cc1OC [Example 11]
Pneumocystis carinii; 5 mg/kg i.v. daily
  Extent of Disease by Histologic Score: number of animals with score 0.5: 3 animals
  Extent of Disease by Histologic Score: number of animals with score 1: 4 animals
  Extent of Disease by Histologic Score: number of animals with score 2: 1 animals
  Extent of Disease by Histologic Score: number of animals with score 3: 0 animals
  Extent of Disease by Histologic Score: number of animals with score 4: 0 animals
Pneumocystis carinii; tested at 5 mg/kg
  Extent of disease by histologic score (combined): number of animals in scoring group 0.5: 3 animals
  Extent of disease by histologic score (combined): number of animals in scoring group 1: 4 animals
  Extent of disease by histologic score (combined): number of animals in scoring group 2: 1 animals
  Extent of disease by histologic score (combined): number of animals in scoring group 3: 0 animals
  Extent of disease by histologic score (combined): number of animals in scoring group 4: 0 animals
Pneumocystis carinii; compound at 5 mg/kg
  Efficacy in treating PCP compared with control: significantly better, at one half the dose, than the control
[1]; rat, in vivo, 5 mg/kg
  Toxicity of amidines: Effect: None

## N=C(N)c1ccc(OCCCCCOc2ccc(C(=N)N)cc2[N+](=O)[O-])c([N+](=O)[O-])c1 [Example 13]
Pneumocystis carinii; 5 mg/kg i.v. daily
  Extent of Disease by Histologic Score: number of animals with score 0.5: 3 animals
  Extent of Disease by Histologic Score: number of animals with score 1: 2 animals
  Extent of Disease by Histologic Score: number of animals with score 2: 3 animals
  Extent of Disease by Histologic Score: number of animals with score 3: 0 animals
  Extent of Disease by Histologic Score: number of animals with score 4: 0 animals
Pneumocystis carinii; tested at 5 mg/kg
  Extent of disease by histologic score (combined): number of animals in scoring group 0.5: 0 animals
  Extent of disease by histologic score (combined): number of animals in scoring group 1: 2 animals
  Extent of disease by histologic score (combined): number of animals in scoring group 2: 4 animals
  Extent of disease by histologic score (combined): number of animals in scoring group 3: 2 animals
  Extent of disease by histologic score (combined): number of animals in scoring group 4: 0 animals
[1]; dose as in value, else not given in Table XIII (10 mg/kg test dose)
  Toxicity of amidines: Effect: Acute toxicity, death at 10 mg/kg

## c1cc(C2=NCCN2)ccc1OCCCCCOc1ccc(C2=NCCN2)cc1 [Example 30]
Pneumocystis carinii; 10 mg/kg i.v. daily
  Extent of Disease by Histologic Score: number of animals with score 0.5: 5 animals
  Extent of Disease by Histologic Score: number of animals with score 1: 3 animals
  Extent of Disease by Histologic Score: number of animals with score 2: 0 animals
  Extent of Disease by Histologic Score: number of animals with score 3: 0 animals
  Extent of Disease by Histologic Score: number of animals with score 4: 0 animals
Pneumocystis carinii; [2]
  Efficacy in treating PCP compared with pentamidine: comparable to or perhaps slightly better than pentamidine
Pneumocystis carinii; 10 mg/kg
  Extent of disease by histologic score (combined): number of animals in scoring group 0.5: 5 animals
  Extent of disease by histologic score (combined): number of animals in scoring group 1: 3 animals
  Extent of disease by histologic score (combined): number of animals in scoring group 2: 0 animals
  Extent of disease by histologic score (combined): number of animals in scoring group 3: 0 animals
  Extent of disease by histologic score (combined): number of animals in scoring group 4: 0 animals

## N=C(N)c1ccc(NCCNc2ccc(C(=N)N)cc2N)c(N)c1 [Example 33]
Pneumocystis carinii; 10 mg/kg i.v. daily
  Extent of Disease by Histologic Score: number of animals with score 0.5: 0 animals
  Extent of Disease by Histologic Score: number of animals with score 1: 0 animals
  Extent of Disease by Histologic Score: number of animals with score 2: 4 animals
  Extent of Disease by Histologic Score: number of animals with score 3: 3 animals
  Extent of Disease by Histologic Score: number of animals with score 4: 1 animals
Pneumocystis carinii; [2]
  Efficacy in treating PCP compared with control: better than the control
  Efficacy in treating PCP compared with pentamidine: worse than pentamidine
Pneumocystis carinii; 10 mg/kg
  Extent of disease by histologic score (combined): number of animals in scoring group 0.5: 0 animals
  Extent of disease by histologic score (combined): number of animals in scoring group 1: 0 animals
  Extent of disease by histologic score (combined): number of animals in scoring group 2: 4 animals
  Extent of disease by histologic score (combined): number of animals in scoring group 3: 3 animals
  Extent of disease by histologic score (combined): number of animals in scoring group 4: 1 animals

## N=C(N)c1ccc(NCCCNc2ccc(C(=N)N)cc2N)c(N)c1 [Example 36]
Pneumocystis carinii; 10 mg/kg i.v. daily
  Extent of Disease by Histologic Score: number of animals with score 0.5: 1 animals
  Extent of Disease by Histologic Score: number of animals with score 1: 4 animals
  Extent of Disease by Histologic Score: number of animals with score 2: 2 animals
  Extent of Disease by Histologic Score: number of animals with score 3: 0 animals
  Extent of Disease by Histologic Score: number of animals with score 4: 0 animals
Pneumocystis carinii; 10 mg/kg
  Extent of disease by histologic score (combined): number of animals in scoring group 0.5: 1 animals
  Extent of disease by histologic score (combined): number of animals in scoring group 1: 4 animals
  Extent of disease by histologic score (combined): number of animals in scoring group 2: 2 animals
  Extent of disease by histologic score (combined): number of animals in scoring group 3: 0 animals
  Extent of disease by histologic score (combined): number of animals in scoring group 4: 0 animals
Pneumocystis carinii
  Efficacy in treating PCP compared with related compounds of the series: better than the nitro substituted compounds

## N=C(N)c1ccc(NCCCCNc2ccc(C(=N)N)cc2N)c(N)c1 [Example 37]
Pneumocystis carinii; 10 mg/kg i.v. daily
  Extent of Disease by Histologic Score: number of animals with score 0.5: 0 animals
  Extent of Disease by Histologic Score: number of animals with score 1: 4 animals
  Extent of Disease by Histologic Score: number of animals with score 2: 3 animals
  Extent of Disease by Histologic Score: number of animals with score 3: 1 animals
  Extent of Disease by Histologic Score: number of animals with score 4: 0 animals
Pneumocystis carinii; 10 mg/kg
  Extent of disease by histologic score (combined): number of animals in scoring group 0.5: 0 animals
  Extent of disease by histologic score (combined): number of animals in scoring group 1: 4 animals
  Extent of disease by histologic score (combined): number of animals in scoring group 2: 3 animals
  Extent of disease by histologic score (combined): number of animals in scoring group 3: 1 animals
  Extent of disease by histologic score (combined): number of animals in scoring group 4: 0 animals
Pneumocystis carinii
  Efficacy in treating PCP compared with related compounds of the series: better than the nitro substituted compounds

## N=C(N)c1ccc(NCCCCCCNc2ccc(C(=N)N)cc2)cc1 [Example 39]
Pneumocystis carinii; 10 mg/kg i.v. daily
  Extent of Disease by Histologic Score: number of animals with score 0.5: 2 animals
  Extent of Disease by Histologic Score: number of animals with score 1: 1 animals
  Extent of Disease by Histologic Score: number of animals with score 2: 0 animals
  Extent of Disease by Histologic Score: number of animals with score 3: 0 animals
  Extent of Disease by Histologic Score: number of animals with score 4: 0 animals

## c1cc(C2=NCCN2)ccc1OCCCCOc1ccc(C2=NCCN2)cc1 [Example 40]
Pneumocystis carinii; 10 mg/kg i.v. daily
  Extent of Disease by Histologic Score: number of animals with score 0.5: 1 animals
  Extent of Disease by Histologic Score: number of animals with score 1: 2 animals
  Extent of Disease by Histologic Score: number of animals with score 2: 3 animals
  Extent of Disease by Histologic Score: number of animals with score 3: 1 animals
  Extent of Disease by Histologic Score: number of animals with score 4: 0 animals
Pneumocystis carinii; [2]
  Efficacy in treating PCP compared with control: significantly better than the control
Pneumocystis carinii; 10 mg/kg
  Extent of disease by histologic score (combined): number of animals in scoring group 0.5: 1 animals
  Extent of disease by histologic score (combined): number of animals in scoring group 1: 2 animals
  Extent of disease by histologic score (combined): number of animals in scoring group 2: 3 animals
  Extent of disease by histologic score (combined): number of animals in scoring group 3: 1 animals
  Extent of disease by histologic score (combined): number of animals in scoring group 4: 0 animals
